This note sets out measurements from PubChem BioAssay (NCI).

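Cells were grown in 96-well plates and exposed to each compound for 48 hours at five concentrations; endpoints were interpolated linearly between bracketing concentrations, or set to the highest concentration if not reached. Here, GI50 denotes the concentration required for 50% inhibition of growth. TGI: concentration producing complete growth inhibition.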 Some results are limits rather than exact numbers.

Holding throughout (test): DTP human tumour cell line panel, 48 h
Assay [1] relates to MDA-MB-231 breast.
Assay [2] relates to SR leukemia.
Assay [3] relates to U251 CNS.
For assay [4], the system named is ACHN renal.
For assay [5], the system named is SW-620 colon.
Assay [6] concerns M14 melanoma.
Assay [7] has as its system CAKI-1 renal.
The test system of assay [8] is SK-MEL-28 melanoma.
The test system of assay [9] is OVCAR-3 ovarian.

In the case of `Cc1cc2nc(-c3c(F)cccc3Cl)n(Cc3c(F)cccc3Cl)c2cc1C`, the GI50 – broadly, the concentration that inhibits growth by half – in [1] is 10.4 µM; in assay [2], 17.5 µM; in [3], 14.1 µM; in [4] it was 14.5 µM; in [5] it was 11.8 µM; in assay [6], 11.5 µM. For the same molecule, the GI50 in [7] is 2.92 µM; in assay [8], 24.8 µM. Also, the TGI – broadly, the concentration giving total growth inhibition – in assay [1] was 23.1 µM; in assay [2], over 100 µM; in assay [3], 29.9 µM; in assay [4], 45.6 µM; in assay [5], 32.4 µM; in assay [6] it was 26.7 µM. The TGI came out at 14.6 µM in assay [7] and 55.2 µM in assay [8].

In the case of `O=S1(=O)c2ccccc2N=C(c2ccccc2Cl)CC1c1ccc(F)cc1` (stereo not given), the TGI is 27.4 µM in assay [9]; 28.4 µM in [3]; 32.6 µM in assay [4]; 31.5 µM in assay [5]; 35.3 µM in assay [6]; 34.3 µM in assay [7]. Besides, the TGI in [8] was determined as 32.7 µM.

Turning to `CC(=O)NC(CCCN(Cc1ccccc1)C(=O)N(C)N=O)C(=O)NCc1ccccc1` (stereo not given), the TGI in [9], in [3], in assay [4], in assay [5], in assay [6] and in assay [7] was over 100 µM throughout. Besides, in assay [8], the TGI was over 100 µM.

Turning to `C#CCOCn1cnc2ncnc(N)c21`, the TGI in assay [9], in assay [2], in assay [3], in assay [4], in [5] and in assay [7] was over 100 µM throughout. This molecule also had a concentration for total growth inhibition (TGI) in [8] of over 100 µM.

`CN(C)CN(C)c1nc(N(C)C)nc(N(C)CN(C)C)n1`: the TGI in assay [9] was over 100 µM; in assay [2], 58.3 µM; in assay [3] it was over 100 µM; in assay [4], over 100 µM; in [5] it was 57.3 µM; in assay [6], over 100 µM. Also, the figures for the concentration for total growth inhibition (TGI) in assay [7] and in assay [8] were over 100 µM and 83.6 µM, respectively.

Regarding `COc1cc(C(C#N)NNc2nc(C)cc(=O)[nH]2)cc(OC)c1OC` (stereo not given), the TGI in assay [9], in assay [2], in assay [3], in [4], in [5] and in assay [6] was over 100 µM each time. The total growth inhibition concentration (TGI) in assay [7] and in assay [8] was over 100 µM in each case.

For `O=C(/C=C/C1C(=O)NC(=O)NC1=O)CC(=O)C(=O)Nc1cc(Cl)c(Cl)cc1Cl`, the TGI in assay [9], in assay [2], in [3], in [4], in assay [5] and in assay [6] was over 100 µM throughout. For the same molecule, the total growth inhibition concentration (TGI) in assay [7] and in assay [8] was over 100 µM throughout.

`c1ccc(-c2ccnc3c2ccc2c(-c4ccccc4)ccnc23)cc1`: the total growth inhibition concentration (TGI) in [9] was 10.1 µM; in assay [2], 1.29 µM; in assay [3] it was 6.79 µM; in [4] it was 9.45 µM; in [5], 15 µM; in assay [6], 17.6 µM. This molecule yielded a concentration for total growth inhibition (TGI) in [8] of 19.9 µM.

As to `CC(C)(C)Sc1nnc(SC(C)(C)C)c2c(=O)[nH]nc(SC(C)(C)C)c12`, the TGI in assay [9] was 22.6 µM; in assay [2], 19.1 µM; in [3], 19.7 µM; in assay [5], 20.8 µM; in [6] it was 28.9 µM; in assay [7], 16.3 µM.

Consider `C/C(=N\NS(=O)(=O)c1ccc([N+](=O)[O-])cc1)c1ccc[n+]([O-])n1`, for which the concentration for total growth inhibition (TGI) is 4.95 µM in assay [9]; 49 µM in assay [2]; 5.06 µM in [3]; over 21.7 µM in assay [4]; 7.99 µM in assay [5]; 4.84 µM in assay [6]. In [7], the concentration for total growth inhibition (TGI) came out at 6.99 µM.

In the case of `CCOC(=O)CC(NC(=O)c1ccc(N=NN(C)C)cc1)C(=O)OCC` (stereo not given), the concentration for total growth inhibition (TGI) in assay [9], in assay [2], in assay [3], in assay [4], in assay [5] and in assay [6] was over 100 µM each time. Further, the TGI in assay [7] and in assay [8] was over 100 µM in each case.

As for `O=c1c2ccccc2nc(-c2ccccc2)n1NC(=S)Nc1cccc(Cl)c1`, the TGI in assay [2], in assay [3], in assay [4], in [5], in [6] and in assay [7] was over 100 µM each time. In [8], this molecule gave a TGI of over 100 µM.

Consider `COc1ccc(C)cc1C1CCC(=O)O1` (stereo not given), for which the concentration for total growth inhibition (TGI) in assay [9], in assay [2], in [3], in assay [4], in assay [5] and in [6] was over 100 µM in each case. This molecule registered a TGI in assay [8] of over 100 µM.

With `O=C1CCC(=O)c2sccc2N1`, the TGI in assay [9], in assay [3], in assay [4], in assay [5], in assay [6] and in [7] was over 100 µM throughout. Besides, the TGI in assay [8] is over 100 µM.

Consider `Cn1nc(-c2ccccc2)c(C(=O)/C=C/c2ccc(Cl)cc2)c(N2CCCC2)c1=O`, for which the TGI came to 15.5 µM in assay [3]; 3.34 µM in assay [4]; 21.9 µM in assay [5]; 22.2 µM in assay [6]; 22.2 µM in [7]; 13.8 µM in assay [8].

Turning to `COc1ccc2c(c1)c1c3n2CCNN=C3CCC1`, the concentration for total growth inhibition (TGI) in [9], in assay [2], in [3], in [4], in assay [5] and in assay [6] was over 100 µM in each case. For the same molecule, the TGI in assay [7] and in assay [8] was over 100 µM each time.

With `CCCCNC1=C(C(=O)OCC)/C(=N/NC(=O)c2ccccc2O)CO1`, the TGI in assay [9], in assay [3], in assay [5], in [6], in assay [7] and in [8] was over 100 µM in each case.
